This note sets out measurements from US12162863B2, “Modulators of stimulator of interferon genes (STING)” (RYVU THERAPEUTICS S.A., priority 2018, dated 2024).

Test [1] concerns NF-κB pathway in THP-1 dual cells. Description: THP-1 Dual Reporter Assay, NF-κB pathway (SEAP reporter). It counts as cell-based. Conditions: Homo sapiens, THP1-Dual, 18 h of stimulation, absorbance at 630 nm, read-out: THP1 Dual EC50 (μM) NFkB. Put shortly:
(§1)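 THP-1 dual cells stimulated 18 h with STING agonist; medium then sampled. IRF pathway: luciferase (ISG54 promoter/ISRE) read as luminescence immediately after reagent addition. NF-κB pathway: SEAP (IFN-β minimal promoter/NF-κB elements) developed 2 h at 37 °C, absorbance at 630 nm.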
A general note: Reporter assays use an easily measured gene product as a stand-in for the process of interest.

Test [2] deals with interferon regulatory factor (IRF) pathway in THP-1 dual cells. Description: THP-1 Dual Reporter Assay, IRF pathway (luciferase reporter). It counts as cell-based. The conditions noted are these: Homo sapiens, THP1-Dual, 18 h of stimulation, luminescence. Put shortly: as §1
For test [3], the target named is human STING (Homo sapiens, UniProt Q86WV6). Put plainly: Fluorescence Thermal Shift assay. Type of test: binding. The conditions noted are these: 50 μM compound; STING 0.1 mg/ml; 20 minutes preincubation; read-out: [hSTING] FTS, ΔTm [° C.] for 50 μM. Put shortly: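 Human STING at a final 0.1 mg/ml was preincubated with compound for 20 min in 50 mM Hepes, 150 mM NaCl, pH 7.5, then SyproOrange dye was added. Thermal unfolding ran from 25 to 99° C at 0.033° C/s, continuous ramp. Values are reported as ΔTm (° C).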
Chain of human STING (Q86WV6 whole entry H232R): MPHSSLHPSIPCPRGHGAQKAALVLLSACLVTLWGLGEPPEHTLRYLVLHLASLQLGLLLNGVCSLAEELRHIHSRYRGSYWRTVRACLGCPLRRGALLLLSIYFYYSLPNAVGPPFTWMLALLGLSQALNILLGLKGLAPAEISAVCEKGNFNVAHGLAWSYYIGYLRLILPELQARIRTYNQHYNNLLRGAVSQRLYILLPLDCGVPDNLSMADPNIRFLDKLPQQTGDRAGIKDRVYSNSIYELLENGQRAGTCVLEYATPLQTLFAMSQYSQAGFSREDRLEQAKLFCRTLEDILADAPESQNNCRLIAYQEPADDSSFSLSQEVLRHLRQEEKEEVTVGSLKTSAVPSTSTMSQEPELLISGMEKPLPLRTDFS

The structures appear in SMILES notation. Bounds are passed on as bounds.

In general, EC50 refers to the concentration at which the effect is half-maximal. The term ΔTm denotes the change in melting temperature against a reference sample. Regarding `O=c1c(CN(CCCc2cccnc2)Cc2ccncc2)coc2c1ccc1ccccc12` [Example 28, 3-({[3-(pyridin-3-yl)propyl](pyridin-4-ylmethyl)amino}methyl)-4H-benzo[h]chromen-4-one], the EC50 in test [1] and in test [2] was no more than 10 µM in each case. Further, the ΔTm at 50 µM in test [3] was greater than 2.5 °C.

`COc1ccc2c(=O)c(CN(CCCn3ccnc3)Cc3ccncc3)coc2c1` [Example 9, 3-({[3-(1H-imidazol-1-yl)propyl](pyridin-4-ylmethyl)amino}methyl)-7-methoxy-4H-chromen-4-one]: the half-maximal effective concentration (EC50) in test [1] and in test [2] was no more than 10 µM in each case. In addition, the ΔTm at 50 µM in test [3] is greater than 2.5 °C.

On to `COc1cc(CN(CCCn2ccnc2)Cc2coc3cc(O)ccc3c2=O)ccn1` [Example 27, 7-hydroxy-3-({[3-(1H-imidazol-1-yl)propyl][(2-methoxypyridin-4-yl)methyl]amino}methyl)-4H-chromen-4-one], for which the half-maximal effective concentration (EC50) was no less than 20 µM in test [1] and 10 to 20 µM in test [2]. Besides, in test [3], the ΔTm at 50 µM was greater than 2.5 °C.

For the compound `COc1cc(CN(CCCc2cccnc2)Cc2c(C)oc3cc(N4CCOCC4)c(F)cc3c2=O)ccn1` [Example 77, 6-fluoro-3-({[(2-methoxypyridin-4-yl)methyl][3-(pyridin-3-yl)propyl]amino}methyl)-2-methyl-7-(morpholin-4-yl)-4H-chromen-4-one], the EC50 in test [1] and in test [2] was no more than 10 µM in each case. Further, the ΔTm at 50 µM in test [3] is less than 2.5 °C.

For the compound `Cn1cc(CN(CCCn2ccnc2)Cc2ccncc2)c(=O)c2ccccc21` [Example 31, 3-({[3-(1H-imidazol-1-yl)propyl][(pyridin-4-yl)methyl]amino}methyl)-1-methyl-1,4-dihydroquinolin-4-one], the EC50 in test [1] and in test [2] was no less than 20 µM each time. In addition, in test [3], the ΔTm at 50 µM is greater than 2.5 °C.

Turning to `Cc1cc(CN(CCCn2cnc3ccccc32)Cc2cn(C)c3ccccc3c2=O)ccn1` [Example 100, 3-({[3-(1H-1,3-benzodiazol-1-yl)propyl][(2-methylpyridin-4-yl)methyl]amino}methyl)-1-methyl-1,4-dihydroquinolin-4-one], the EC50 in test [1] and in test [2] was no more than 10 µM each time. In addition, the ΔTm at 50 µM in test [3] is greater than 2.5 °C.

`O=c1c(CN(CCCn2ccnc2)Cc2ccncc2)coc2cc(Br)c(F)cc12` [Example 37, 7-bromo-6-fluoro-3-({[3-(1H-imidazol-1-yl)propyl][(pyridin-4-yl)methyl]amino}methyl)-4H-chromen-4-one]: the EC50 in test [1] and in test [2] was no more than 10 µM in each case. In addition, the ΔTm at 50 µM in test [3] is greater than 2.5 °C.

For `COc1cc(CN(CCCn2ccnc2)Cc2coc3c(C)c(C)ccc3c2=O)ccn1` [Example 51, 3-({[3-(1H-imidazol-1-yl)propyl][(2-methoxypyridin-4-yl)methyl]amino}methyl)-7,8-dimethyl-4H-chromen-4-one], the EC50 in test [1] and in test [2] was no more than 10 µM each time. Besides, in test [3], the ΔTm at 50 µM was greater than 2.5 °C.

Regarding `COc1cc(CN(CCCc2ccnnc2)Cc2cn(C)c3ccccc3c2=O)ccn1` [Example 102, 3-({[(2-methoxypyridin-4-yl)methyl][3-(pyridazin-4-yl)propyl]amino}methyl)-1-methyl-1,4-dihydroquinolin-4-one], the concentration giving a half-maximal response (EC50) in test [1] and in test [2] was no less than 20 µM in each case. Besides, in test [3], the thermal shift (ΔTm) at 50 µM was less than 2.5 °C.

Regarding `CN(C)c1ccc(CCCN(Cc2ccncc2)Cc2coc3c(ccc4ccccc43)c2=O)cn1` [Example 60, 3-[({3-[6-(dimethylamino)pyridin-3-yl]propyl}[(pyridin-4-yl)methyl]amino)methyl]-4H-benzo[h]chromen-4-one], the EC50 in test [1] and in test [2] was no less than 20 µM in each case. In test [3], the ΔTm at 50 µM is less than 2.5 °C.

On to `COc1cc(CN(CCCn2cc(C(N)=O)nn2)Cc2cn(C)c3ccccc3c2=O)ccn1` [Example 103, 1-(3-{[(2-methoxypyridin-4-yl)methyl][(1-methyl-4-oxo-1,4-dihydroquinolin-3-yl)methyl]amino}propyl)-1H-1,2,3-triazole-4-carboxamide], for which the EC50 in test [1] and in test [2] was no less than 20 µM throughout. Moreover, the ΔTm at 50 µM in test [3] is less than 2.5 °C.

As to `CC(CCn1cnc2ccccc21)N(Cc1ccncc1)Cc1coc2c(ccc3ccccc32)c1=O` (stereo not drawn) [Example 72, 3-({[4-(1H-1,3-benzodiazol-1-yl)butan-2-yl](pyridin-4-ylmethyl)amino}methyl)-4H-benzo[h]chromen-4-one], the EC50 in test [1] and in test [2] was no more than 10 µM in each case. In test [3], the ΔTm at 50 µM was less than 2.5 °C.

`Cc1oc2cc(C(=O)O)c(F)cc2c(=O)c1CN(CCCc1cccnc1)Cc1ccncc1` [Example 80, 6-fluoro-2-methyl-4-oxo-3-({[3-(pyridin-3-yl)propyl][(pyridin-4-yl)methyl]amino}methyl)-4H-chromene-7-carboxylic acid]: the EC50 in test [1] and in test [2] was no less than 20 µM throughout. For the same compound, the ΔTm at 50 µM in test [3] is less than 2.5 °C.

On to `CN1CCN(c2ccc3c(=O)c(CN(CCCn4ccnc4)Cc4ccncc4)coc3c2)CC1` [Example 12, 3-({[3-(1H-imidazol-1-yl)propyl](pyridin-4-ylmethyl)amino}methyl)-7-(4-methylpiper-azin-1-yl)-4H-chromen-4-one], for which the EC50 is 10 to 20 µM in test [1] and no more than 10 µM in test [2]. The ΔTm at 50 µM in test [3] was greater than 2.5 °C.

For the compound `COc1cc2ncn(CCCN(Cc3ccncc3)Cc3coc4c(ccc5ccccc54)c3=O)c2cc1OC` [Example 76, 3-({[3-(5,6-dimethoxy-1H-1,3-benzodiazol-1-yl)propyl](pyridin-4-ylmethyl)amino}methyl)-4H-benzo[h]chromen-4-one], the EC50 in test [1] and in test [2] was no more than 10 µM throughout. Also, the ΔTm at 50 µM in test [3] is greater than 2.5 °C.

As for `Cc1oc2cc(Br)ccc2c(=O)c1CN(CCCn1ccnc1)Cc1ccncc1` [Example 48, 7-bromo-3-({[3-(1H-imidazol-1-yl)propyl][(pyridin-4-yl)methyl]amino}methyl)-2-methyl-4H-chromen-4-one], the EC50 in test [1] and in test [2] was no more than 10 µM each time. In test [3], the ΔTm at 50 µM was greater than 2.5 °C.

In the case of `COc1cc(CN(Cc2coc3c(ccc4ccccc43)c2=O)C(C)CCc2cccnc2)ccn1` (stereo not drawn) [Example 83, 3-({[(2-methoxypyridin-4-yl)methyl][4-(pyridin-3-yl)butan-2-yl]amino}methyl)-4H-benzo[h]chromen-4-one], the EC50 in test [1] and in test [2] was no more than 10 µM throughout. Besides, the ΔTm at 50 µM in test [3] was less than 2.5 °C.

In the case of `Cc1ccc2c(=O)c(CN(CCCn3ccnn3)Cc3ccncc3)coc2c1C` [Example 14, 7,8-dimethyl-3-{[(pyridin-4-ylmethyl)[3-(1H-1,2,3-triazol-1-yl)propyl]amino]methyl}-4H-chromen-4-one], the EC50 in test [1] and in test [2] was 10 to 20 µM each time. Further, the ΔTm at 50 µM in test [3] was greater than 2.5 °C.

Regarding `COc1cc(CN(CCCn2cnc3ccccc32)Cc2c[nH]c3ccccc3c2=O)ccn1` [Example 88, 3-({[3-(1H-1,3-benzodiazol-1-yl)propyl][(2-methoxypyridin-4-yl)methyl]amino}methyl)-1,4-dihydroquinolin-4-one], the EC50 in test [1] and in test [2] was no less than 20 µM throughout. For the same compound, the ΔTm at 50 µM in test [3] was greater than 2.5 °C.

In the case of `COc1cc(CN(CCCn2ccnc2)Cc2coc3ccccc3c2=O)ccn1` [Example 18, 3-({[3-(1H-imidazol-1-yl)propyl][(2-methoxypyridin-4-yl)methyl]amino}methyl)-4H-chromen-4-one], the EC50 in test [1] and in test [2] was no less than 20 µM throughout. Also, in test [3], the ΔTm at 50 µM was less than 2.5 °C.

Consider `COc1ccc(-c2ccc3c(=O)c(CN(CCCn4ccnc4)Cc4ccncc4)coc3c2)cc1OC` [Example 38, 7-(3,4-dimethoxyphenyl)-3-({[3-(1H-imidazol-1-yl)propyl][(pyridin-4-yl)methyl]amino}methyl)-4H-chromen-4-one], for which the EC50 in test [1] and in test [2] was no less than 20 µM throughout. In addition, in test [3], the thermal shift (ΔTm) at 50 µM was less than 2.5 °C.

Take `CN1CCN(c2cc3occ(CN(CCCn4ccnc4)Cc4ccncc4)c(=O)c3cc2F)CC1` [Example 49, 6-fluoro-3-({[3-(1H-imidazol-1-yl)propyl][(pyridin-4-yl)methyl]amino}methyl)-7-(4-methylpiperazin-1-yl)-4H-chromen-4-one]: the EC50 in test [1] and in test [2] was no more than 10 µM throughout. Further, in test [3], the ΔTm at 50 µM is greater than 2.5 °C.

For the compound `Cc1ccc2c(=O)c(CN(CCCn3cnc4c(=O)[nH]cnc43)Cc3ccncc3)c(C)oc2c1C` [Example 75, 9-(3-{[(pyridin-4-yl)methyl][(2,7,8-trimethyl-4-oxo-4H-chromen-3-yl)methyl]amino}propyl)-6,9-dihydro-1H-purin-6-one], the EC50 in test [1] is 10 to 20 µM; in test [2], no more than 10 µM. Moreover, in test [3], the ΔTm at 50 µM was greater than 2.5 °C.

`O=c1c(CN(CCCn2ccnc2)Cc2ccncc2)coc2c1ccc1ccccc12` [Example 7, 3-({[3-(1H-imidazol-1-yl)propyl](pyridin-4-ylmethyl)amino}methyl)-4H benzo[h]chromen-4-one]: the EC50 in test [1] and in test [2] was no more than 10 µM throughout. In test [3], the ΔTm at 50 µM is greater than 2.5 °C.

Take `COc1cccc(-c2ccc3c(=O)c(CN(CCCn4ccnc4)Cc4ccncc4)coc3c2)c1` [Example 40, 3-({[3-(1H-imidazol-1-yl)propyl][(pyridin-4-yl)methyl]amino}methyl)-7-(3-methoxyphenyl)-4H-chromen-4-one]: the EC50 in test [1] and in test [2] was no more than 10 µM each time. Also, in test [3], the ΔTm at 50 µM was greater than 2.5 °C.
